Measurements from patent US7259183B2, “Indole, indazole and indoline derivatives as CETP inhibitors” (Hoffmann-La Roche Inc., priority 2004, dated 2007).

Biological target: T1, CETP (Homo sapiens, UniProt P11597)
T1 sequence (P11597 18-493): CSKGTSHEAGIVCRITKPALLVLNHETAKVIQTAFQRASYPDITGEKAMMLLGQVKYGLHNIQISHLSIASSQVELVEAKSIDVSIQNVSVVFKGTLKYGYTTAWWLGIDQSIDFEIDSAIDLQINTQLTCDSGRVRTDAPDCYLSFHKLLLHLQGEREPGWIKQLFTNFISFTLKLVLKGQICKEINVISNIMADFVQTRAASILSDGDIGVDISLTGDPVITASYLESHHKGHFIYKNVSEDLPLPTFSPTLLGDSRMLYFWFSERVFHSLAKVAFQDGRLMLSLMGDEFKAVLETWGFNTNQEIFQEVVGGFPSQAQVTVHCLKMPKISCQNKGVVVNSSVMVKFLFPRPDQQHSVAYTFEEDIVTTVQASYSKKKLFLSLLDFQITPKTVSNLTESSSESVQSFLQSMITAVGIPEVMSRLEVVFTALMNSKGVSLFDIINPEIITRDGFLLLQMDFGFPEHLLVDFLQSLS
Test: CETP inhibition, buffer assay system (SPA, radiolabeled cholesteryl ester transfer from HDL to LDL)
Type: biochemical
Details: partially purified CETP, selected compounds, read-out: 1C50
Description: Activity of CETP inhibitors was determined using a buffer assay system. Partially purified CETP transferred radiolabeled cholesteryl ester from HDL donor particles to biotin-labeled LDL acceptor particles. The reaction was stopped by addition of streptavidin-coupled scintillation proximity assay (SPA) beads. These beads captured the biotinylated acceptor particles and transferred radioactivity was measured. The assay system was purchased and performed according to manufacturer's recommendations (Amersham Biosciences). Inhibitory activity of compounds was determined as percentage of positive control activity containing CETP together with donor and acceptor particles. Serial dilution of compounds was performed in order to determine the IC50 values.

Row | SMILES | IC50 [nM]
1 | CC(C)(C)c1ccc(CN(CCc2ccc(F)cc2)C(=O)c2cccc3c2NCC3)cc1 [Compound 76, 2,3-Dihydro-1H-indole-7-carboxylic acid (4-tert-butyl-benzyl)-[2-(4-fluoro-phenyl)-ethyl]-amide] | 58
2 | CC(C)(C)c1ccc(CN(CCOc2ccc(F)cc2)C(=O)c2cccc3cc[nH]c23)cc1 [Compound 90, 1H-Indole-7-carboxylic acid (4-tert-butyl-benzyl)-[2-(4-fluoro-phenoxy)-ethyl]-amide] | 202
3 | CC(C)CCN(Cc1ccc(C(C)(C)C)cc1)C(=O)c1cccc2cc[nH]c12 [Compound 1, 1H-Indole-7-carboxylic acid (4-tert-butyl-benzyl)-(3-methyl-butyl)-amide] | 539
